# Like-named read-outs stand apart in the source and are kept apart here.
# What was measured:
# Ba/F3-EGFR-WT cells = Ba/F3-EGFR-WT cells (Homo sapiens, UniProt P00533); assay: Ba/F3 cell survival assay, wild type EGFR; assay type: cell-based
# Bub1 = target: T1, Bub1 (Homo sapiens, UniProt O43683); assay: Bub1 high ATP kinase assay (TR-FRET); assay type: biochemical; conditions: Bub1 high ATP (2 mM) IC50, TR-FRET, 2 mM ATP; Table 3
# T1 construct: catalytic domain of human Bub1 (amino acids 704-1085); His6 (N); made in house; host or cells: insect cells (Hi5)
# T1 sequence (O43683 704-1085): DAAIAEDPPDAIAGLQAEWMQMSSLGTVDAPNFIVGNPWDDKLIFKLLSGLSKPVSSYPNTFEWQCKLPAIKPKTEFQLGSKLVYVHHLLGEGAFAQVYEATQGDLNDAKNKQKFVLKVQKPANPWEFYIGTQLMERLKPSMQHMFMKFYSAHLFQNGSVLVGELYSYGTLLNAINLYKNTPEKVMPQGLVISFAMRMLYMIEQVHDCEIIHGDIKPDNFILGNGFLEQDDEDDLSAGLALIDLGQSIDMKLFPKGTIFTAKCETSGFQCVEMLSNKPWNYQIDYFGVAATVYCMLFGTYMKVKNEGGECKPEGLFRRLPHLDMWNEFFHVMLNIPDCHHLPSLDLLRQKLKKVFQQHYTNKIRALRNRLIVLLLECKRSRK
# How it was run: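 Enzyme was His6-tagged human Bub1 catalytic domain (aa 704-1085) from Hi5 insect cells, typically about 200 ng/ml, with a biotinylated peptide substrate at high ATP. Reaction ran 60 min at 22 °C, then was stopped with EDTA. Phosphopeptide was detected by TR-FRET (anti-phosphoserine antibody, Eu-labelled anti-mouse IgG, streptavidin-XL665), read as the 665/620 nm emission ratio.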
# [1] = target: Ba/F3-EGFR-D770_N771insSVD cells (Homo sapiens, UniProt P00533, DUP768-770, cells depend on it); assay: Ba/F3 cell survival assay, EGFR D770_N771insSVD; assay type: cell-based
# Chain of Ba/F3-EGFR-D770_N771insSVD cells (P00533 with tags, fused parts or gaps DUP768-770): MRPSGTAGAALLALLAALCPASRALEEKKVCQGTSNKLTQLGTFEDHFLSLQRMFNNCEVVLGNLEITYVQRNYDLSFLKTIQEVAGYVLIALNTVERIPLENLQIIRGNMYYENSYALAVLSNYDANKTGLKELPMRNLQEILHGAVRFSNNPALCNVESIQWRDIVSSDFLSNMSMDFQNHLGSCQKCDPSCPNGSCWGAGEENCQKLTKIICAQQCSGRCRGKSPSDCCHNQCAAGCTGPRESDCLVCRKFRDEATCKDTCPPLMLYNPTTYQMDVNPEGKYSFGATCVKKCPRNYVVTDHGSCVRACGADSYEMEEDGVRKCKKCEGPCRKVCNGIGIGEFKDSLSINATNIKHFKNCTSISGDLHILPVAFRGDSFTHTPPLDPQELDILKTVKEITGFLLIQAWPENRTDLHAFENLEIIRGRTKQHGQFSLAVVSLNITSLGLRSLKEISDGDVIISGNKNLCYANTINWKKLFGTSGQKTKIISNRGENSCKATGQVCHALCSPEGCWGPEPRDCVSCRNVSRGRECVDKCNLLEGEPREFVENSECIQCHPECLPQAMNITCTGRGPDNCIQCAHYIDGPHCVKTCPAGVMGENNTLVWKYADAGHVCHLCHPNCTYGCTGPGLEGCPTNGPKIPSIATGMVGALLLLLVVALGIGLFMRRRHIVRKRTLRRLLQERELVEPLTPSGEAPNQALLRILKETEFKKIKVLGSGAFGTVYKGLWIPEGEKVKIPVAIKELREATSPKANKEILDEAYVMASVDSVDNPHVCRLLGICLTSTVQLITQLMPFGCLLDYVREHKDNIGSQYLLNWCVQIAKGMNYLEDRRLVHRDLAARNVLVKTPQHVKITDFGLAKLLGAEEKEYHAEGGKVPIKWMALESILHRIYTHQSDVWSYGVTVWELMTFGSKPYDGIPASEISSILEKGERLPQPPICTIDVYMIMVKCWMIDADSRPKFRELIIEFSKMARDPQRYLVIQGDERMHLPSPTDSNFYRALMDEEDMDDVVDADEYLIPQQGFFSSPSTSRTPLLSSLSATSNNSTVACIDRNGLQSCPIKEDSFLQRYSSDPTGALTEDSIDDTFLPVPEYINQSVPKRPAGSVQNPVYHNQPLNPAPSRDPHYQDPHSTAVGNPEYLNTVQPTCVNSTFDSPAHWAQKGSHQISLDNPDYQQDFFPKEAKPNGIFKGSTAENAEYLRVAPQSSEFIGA
# [2] = target: T2, EGFR with insertion SVD between D770 and N771 (mutEGFR D770_N771insSVD) (Homo sapiens, UniProt P00533, DUP768-770); assay: Exon20-Mutant-EGFR(D770_N771insSVD) kinase assay (TR-FRET); assay type: biochemical; conditions: 2 mM ATP, Table 2
# T2 construct: amino acids R669 to A1210; made in house; host or cells: Sf9 insect cells (baculovirus)
# T2 sequence (P00533 other isoform, or with tags, fused parts or gaps DUP768-770): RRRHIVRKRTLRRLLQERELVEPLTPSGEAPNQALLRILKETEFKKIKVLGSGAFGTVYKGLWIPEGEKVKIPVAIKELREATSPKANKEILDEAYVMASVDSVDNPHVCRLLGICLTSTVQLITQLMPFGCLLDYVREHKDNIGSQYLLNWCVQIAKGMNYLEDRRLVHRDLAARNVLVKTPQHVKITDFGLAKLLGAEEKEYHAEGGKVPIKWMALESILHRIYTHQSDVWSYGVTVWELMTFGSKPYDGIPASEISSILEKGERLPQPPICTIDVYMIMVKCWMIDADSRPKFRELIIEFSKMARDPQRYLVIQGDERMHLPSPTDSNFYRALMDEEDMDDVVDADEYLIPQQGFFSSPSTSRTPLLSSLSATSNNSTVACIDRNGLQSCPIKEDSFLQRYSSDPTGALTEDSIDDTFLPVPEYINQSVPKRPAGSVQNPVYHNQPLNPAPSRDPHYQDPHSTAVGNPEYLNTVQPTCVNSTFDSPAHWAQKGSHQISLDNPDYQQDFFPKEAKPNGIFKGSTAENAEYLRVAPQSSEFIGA
# [3] = Cell Titer-Glo, 48 h, with 10 ng/mL EGF; Table 4; read-out: BA/F3 (wild type) IC50
# [4] = Cell Titer-Glo, 48 h, without IL-3; Table 4; read-out: BA/F3 (insSVD) IC50
# Chain of Ba/F3-EGFR-WT cells (P00533 whole entry, looked up, change not shown): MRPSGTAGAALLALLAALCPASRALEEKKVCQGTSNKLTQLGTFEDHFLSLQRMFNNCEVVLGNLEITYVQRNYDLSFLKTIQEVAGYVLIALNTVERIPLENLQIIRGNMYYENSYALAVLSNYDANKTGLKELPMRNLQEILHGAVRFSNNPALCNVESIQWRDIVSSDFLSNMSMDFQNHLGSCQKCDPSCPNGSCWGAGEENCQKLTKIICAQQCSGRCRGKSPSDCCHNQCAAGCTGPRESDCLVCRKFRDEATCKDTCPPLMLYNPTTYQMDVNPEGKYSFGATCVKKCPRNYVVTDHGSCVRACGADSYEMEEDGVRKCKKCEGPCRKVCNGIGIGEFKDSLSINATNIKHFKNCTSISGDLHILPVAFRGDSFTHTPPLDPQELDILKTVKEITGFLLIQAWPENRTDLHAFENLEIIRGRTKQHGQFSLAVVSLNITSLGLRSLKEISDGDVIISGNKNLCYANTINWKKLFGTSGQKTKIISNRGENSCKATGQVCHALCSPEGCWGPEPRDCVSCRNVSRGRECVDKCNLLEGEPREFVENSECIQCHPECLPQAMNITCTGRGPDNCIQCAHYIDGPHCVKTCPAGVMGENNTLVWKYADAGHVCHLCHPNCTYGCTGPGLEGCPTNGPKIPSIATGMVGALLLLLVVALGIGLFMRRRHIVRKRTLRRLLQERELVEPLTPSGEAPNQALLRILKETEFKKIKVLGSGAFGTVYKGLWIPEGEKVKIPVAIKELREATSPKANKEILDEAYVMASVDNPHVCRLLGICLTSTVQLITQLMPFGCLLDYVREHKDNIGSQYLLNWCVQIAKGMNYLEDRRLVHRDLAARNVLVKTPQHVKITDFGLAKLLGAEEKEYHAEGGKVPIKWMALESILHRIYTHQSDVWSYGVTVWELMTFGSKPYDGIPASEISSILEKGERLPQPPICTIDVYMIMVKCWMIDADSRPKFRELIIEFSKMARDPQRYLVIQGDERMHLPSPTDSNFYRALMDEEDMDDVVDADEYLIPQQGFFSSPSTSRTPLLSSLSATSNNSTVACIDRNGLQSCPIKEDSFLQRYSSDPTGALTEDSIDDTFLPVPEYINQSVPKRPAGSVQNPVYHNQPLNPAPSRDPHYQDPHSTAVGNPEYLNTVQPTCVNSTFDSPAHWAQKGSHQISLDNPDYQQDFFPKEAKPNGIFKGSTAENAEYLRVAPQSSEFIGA
SMILES,GI50 (Ba/F3-EGFR-WT cells; [3]) [nM],IC50 (Bub1) [nM],"GI50 [1, 4] [nM]",mutEGFR (D770_N771insSVD) kinase assay IC50 [2] [nM],"GI50 (Ba/F3-EGFR-WT cells; read-out: BA/F3 (wild type) IC50; Cell Titer-Glo, 48 h, with 10 ng/mL EGF; Table 4) [nM]","GI50 ([1]; read-out: BA/F3 (insSVD) IC50; Cell Titer-Glo, 48 h, without IL-3; Table 4) [nM]"
"COc1c(Cl)cccc1Nc1c(-c2ccncc2OCC2COC(C)(C)CO2)[nH]c2c1C(=O)NC1(CC1)C2 (stereo not shown) [Example 132, 3′-(3-chloro-2-methoxyanilino)-2′-{3-[(5,5-dimethyl-1,4-dioxan-2-yl)methoxy]pyridin-4-yl}-1′,7′-dihydrospiro[cyclopropane-1,6′-pyrrolo[3,2-c]pyridin]-4′(5′H)-one]",986,1480,44.9,0.394,,
"COc1c(Cl)cccc1Nc1c(-c2ccncc2OC[C@@H]2COCCN2C)[nH]c2c1C(=O)NCC2CCO (single isomer, unassigned) [Example 116]",2030,13700,169,0.276,,
"Cc1c(Cl)cccc1Nc1c(-c2ccncc2OC[C@@H]2CCCO2)[nH]c2c1C(=O)N[C@H](C)C2 [Example 104, (6R)-3-(3-chloro-2-methylanilino)-6-methyl-2-(3-{[(2S)-oxolan-2-yl]methoxy}pyridin-4-yl)-1,5,6,7-tetrahydro-4H-pyrrolo[3,2-c]pyridin-4-one]",,3630,,0.162,983,32.3
"COc1c(Cl)cccc1Nc1c(-c2ccncc2OC[C@@H]2CCCO2)[nH]c2c1C(=O)NC1CCCC21 (stereo in doubt) [Example 55, (5aR*,8aS*)-3-(3-chloro-2-methoxyanilino)-2-(3-{[(2S)-oxolan-2-yl]methoxy}-4-pyridyl)-5,5a,6,7,8,8a-hexahydrocyclopenta[b]pyrrolo[2,3-d]pyridin-4(1H)-one]",978,758,75.1,0.239,,
"CCc1c(Cl)cccc1Nc1c(-c2ccncc2OC[C@@H]2CCCO2)[nH]c2c1C(=O)N[C@H](C)C2 [Example 109, (6R)-3-(3-chloro-2-ethylanilino)-6-methyl-2-(3-{[(2S)-oxolan-2-yl]methoxy}pyridin-4-yl)-1,5,6,7-tetrahydro-4H-pyrrolo[3,2-c]pyridin-4-one]",944,3590,66.9,0.526,,
"COc1c(Cl)cccc1Nc1c(-c2ccncc2OCC2COC(C)(C)CO2)[nH]c2c1C(=O)NC1(CC1)C2 (single isomer, unassigned) [Example 134, 3′-(3-chloro-2-methoxyanilino)-2′-(3-{[5,5-dimethyl-1,4-dioxan-2-yl]methoxy}pyridin-4-yl)-1′,7′-dihydrospiro[cyclopropane-1,6′-pyrrolo[3,2-c]pyridin]-4′(5′H)-one]",718,1160,92.8,0.179,,
"COc1c(Cl)cccc1Nc1c(-c2ccncc2OC[C@@H]2CCCO2)[nH]c2c1C(=O)NC(C(F)(F)F)C2 (mixture of isomers) [Example 38, 3-(3-chloro-2-methoxy-anilino)-2-(3-{[(2S)-tetrahydrofuran-2-yl]methoxy}-4-pyridyl)-6-(trifluoromethyl)-1,5,6,7-tetrahydropyrrolo[3,2-c]pyridin-4-one]",996,628,138,0.188,,
"COc1c(Cl)cccc1Nc1c(-c2ccncc2OC[C@@H]2COCCN2C)[nH]c2c1C(=O)NCC2CCF (single isomer, unassigned) [Example 89]",425,15600,18.2,0.278,,
"COc1c(Cl)cccc1Nc1c(-c2ccncc2OCC2OCCC2(F)F)[nH]c2c1C(=O)N[C@H](C)C2 (single isomer, unassigned) [Example 72]",628,7070,36.6,0.151,,
"COc1c(Cl)cccc1Nc1c(-c2ccncc2OCC2COCCO2)[nH]c2c1C(=O)NC1(CCC1)C2 (stereo not shown) [Example 123, 3-(3-chloro-2-methoxy-anilino)-2-[3-(1,4-dioxan-2-ylmethoxy)-4-pyridyl]spiro[5,7-dihydro-1H-pyrrolo[3,2-c]pyridine-6,1′-cyclobutane]-4-one]",604,439,33.9,0.241,,
"COC(C)(C)COc1cnccc1-c1[nH]c2c(c1Nc1cccc(F)c1CC(F)F)C(=O)N[C@H](C)C2 [Example 65, (6R)-3-[2-(2,2-difluoroethyl)-3-fluoroanilino]-2-[3-(2-methoxy-2-methylpropoxy)pyridin-4-yl]-6-methyl-1,5,6,7-tetrahydro-4H-pyrrolo[3,2-c]pyridin-4-one]",795,2520,72,0.24,,
"COc1c(Cl)cccc1Nc1c(-c2ccncc2OC[C@@H]2CCCO2)[nH]c2c1C(=O)NCC2CCC(F)(F)F (single isomer, unassigned) [Example 99]",846,> 20000,45.9,0.72,,
"COc1c(Cl)cccc1Nc1c(-c2ccncc2OC[C@@H]2CCCO2)[nH]c2c1C(=O)NCC2C (single isomer, unassigned) [Example 31]",2770,> 20000,125,0.119,,
"COc1c(Cl)cccc1Nc1c(-c2ccncc2OCC2CCCCO2)[nH]c2c1C(=O)N[C@H](C)C2 (mixture of isomers) [Example 27, (6R)-3-(3-chloro-2-methoxy-anilino)-6-methyl-2-[3-(tetrahydropyran-2-ylmethoxy)-4-pyridyl]-1,5,6,7-tetrahydropyrrolo[3,2-c]pyridin-4-one]",305,> 5700,12,0.0973,,
"Cc1c(Cl)cccc1Nc1c(-c2ccncc2OCC2COCCO2)[nH]c2c1C(=O)N[C@H](C)C2 (stereo partly drawn) [Example 102, (6R)-3-(3-chloro-2-methylanilino)-2-{3-[(1,4-dioxan-2-yl)methoxy]pyridin-4-yl}-6-methyl-1,5,6,7-tetrahydro-4H-pyrrolo[3,2-c]pyridin-4-one]",869,1030,38.7,0.121,,
"COc1c(Cl)cccc1Nc1c(-c2ccncc2OCC2OCCCC2(F)F)[nH]c2c1C(=O)N[C@H](C)C2 (single isomer, unassigned) [Example 76]",2440,> 5700,177,0.24,,
"COc1c(Cl)cccc1Nc1c(-c2ccncc2OCC2COCCO2)[nH]c2c1C(=O)N[C@@H]1CCC[C@H]21 (single isomer, unassigned) [Example 53]",712,14500,34.9,0.282,,
"Cc1c(Cl)cccc1Nc1c(-c2ccncc2OCC2COCCO2)[nH]c2c1C(=O)NCC2C (single isomer, unassigned) [Example 70, 3-(3-chloro-2-methyl-anilino)-2-[3-(1,4-dioxan-2-ylmethoxy)-4-pyridyl]-7-methyl-1,5,6,7-tetrahydropyrrolo[3,2-c]pyridin-4-one]",4630,1550,224,0.255,,
"COc1c(Cl)cccc1Nc1c(-c2ccncc2OCC2COCCO2)[nH]c2c1C(=O)NC1(CCC1)C2 (single isomer, unassigned) [Example 125, 3-(3-chloro-2-methoxy-anilino)-2-[3-(1,4-dioxan-2-ylmethoxy)-4-pyridyl]spiro[5,7-dihydro-1H-pyrrolo[3,2-c]pyridine-6,1′-cyclobutane]-4-one]",948,446,40.4,0.235,,
"Cc1c(Cl)cccc1Nc1c(-c2ccncc2OCC2OCCCC2(F)F)[nH]c2c1C(=O)NCC2C (stereo not shown) [Example 61, 3-(3-chloro-2-methyl-anilino)-2-[3-[(3,3-difluorotetrahydropyran-2-yl)methoxy]-4-pyridyl]-7-methyl-1,5,6,7-tetrahydropyrrolo[3,2-c]pyridin-4-one]",534,2700,20.5,0.19,,
"COc1c(Cl)cccc1Nc1c(-c2ccncc2OCC(C)OC)[nH]c2c1C(=O)N[C@H](C)C2 (single isomer, unassigned) [Example 82]",248,2710,13.9,0.143,,
"COc1c(Cl)cccc1Nc1c(-c2ccncc2OCC(C)(C)OC)[nH]c2c1C(=O)NCC2CCO (single isomer, unassigned) [Example 15, 3-(3-chloro-2-methoxyanilino)-7-(2-hydroxyethyl)-2-[3-(2-methoxy-2-methylpropoxy)pyridin-4-yl]-1,5,6,7-tetrahydro-4H-pyrrolo[3,2-c]pyridin-4-one]",895,1390,192,0.158,,

# Source: US20230064983A1 (priority 2020, published 2023)
